Read-outs that look alike come from different tables or passages of the source.
How the values were obtained:
[1] = test system: HEK293 parental cells; assay: Cytotoxicity (cell viability, CCK8) assay; assay type: cell-based; conditions: Table 28, 3 days
Method: (§1) Next, exemplary anti-IL-4R (H4H083P2) and anti-IL-6R (VV6A9-5) antibodies were conjugated to the cytotoxic drug DM1 and their potency in cytotoxicity assays was evaluated. Briefly, HEK293/IL-4R, Ramos or KG-1 cell lines, as well as HEK293 parental cells were seeded in PDL-coated 96-well plates at 1500 to 10,000 cells per well. ADCs or free DM1 (as the methyl disulfide derivative DM1-SMe) were added to the cells at final concentrations ranging from 300 nM to 15 pM and incubated for 3 days. Cells were incubated with CCK8 (Dojindo, Rockville, Md.) for the final 1-3 hours and the absorbance at 450 nm (OD450) was determined on a Flexstation3 (Molecular Devices, Sunnyvale, Calif.). Background OD450 values from digitonin (40 nM) treated cells were subtracted from all wells and viability was expressed as a percentage of the untreated controls. IC50 values were determined from a four-parameter logistic equation over a 10-point response curve (GraphPad Prism).

[2] = test system: HEK293/IL-4R cells; assay: Cytotoxicity (cell viability, CCK8) assay; assay type: cell-based; conditions: HEK293/hIL4R; Table 28; 3 days
Method: as §1

[3] = test system: KG-1 cells; assay: Cytotoxicity (cell viability, CCK8) assay; assay type: cell-based; conditions: Table 28, 3 days
Method: as §1

[4] = test system: Ramos cells; assay: Cytotoxicity (cell viability, CCK8) assay; assay type: cell-based; conditions: Table 28, 3 days
Method: as §1

[5] = test system: HEK293 (293) cells; assay: Cell viability (cell kill) assay; assay type: cell-based; conditions: 293
How it was run: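 Anti-PRLR–DM1 ADCs (non-cleavable SMCC linker) or free DM1-SMe, 500 nM to 5 pM for 3 days on parental or hPRLR-overexpressing lines. HEK293: CCK8 OD450; MCF7: Hoechst nuclear counts by imaging.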

[6] = test system: HEK293/hPRLR (293/hPRLR) cells; assay: Cell viability (cell kill) assay; assay type: cell-based, human; conditions: 293/PRLR; for IC50: read-out: IC50
From the text: (§2) PRLR-overexpressing cells, including HEK293, PC3, MCF7 and NCI-N87, were generated to assess the ability of anti-PRLR conjugated antibodies to reduce cell viability. For comparative purposes, PC3 and T47D cells with overexpressed ErbB2 were also generated, as well as an MCF7 cell line over-expressing both hPRLR and hErbB2. Briefly, Lipofectamine® 2000-mediated transfection methodology was utilized to generate HEK293 cells expressing human PRLR (HEK293/hPRLR) or human ErbB2 (HEK293/hErbB2). Lipofectamine LTX with Plus Reagent was used to generate PC3 cells expressing human PRLR (PC3/hPRLR) or human ErbB2 (PC3/hErbB2). Lentiviral-mediated transduction was utilized to generate MCF7 cells expressing human PRLR (MCF7/hPRLR), NCI-N87 cells expressing human PRLR (NCI-N87/hPRLR), T47D cells over-expressing human ErbB2 (T47D/hErbB2), and MCF7 cells expressing both human PRLR and human ErbB2 (MCF7/hPRLR/hErbB2). All lines were selected for at least two weeks in complete growth media plus appropriate selection reagents. Stably expressing populations were enriched for PRLR expression via FACS using the anti PRLR antibody Control I.
(§3) Next, the ability of anti-PRLR-DM1 antibody-drug conjugates (i.e., anti-PRLR antibodies conjugated to DM1 via a non-cleavable linker [SMCC]) to reduce cell viability was determined using in vitro cell based assays. Cells were seeded in PDL-coated 96 well plates at 1500 to 10000 cells per well in complete growth media and allowed to grow overnight. For cell viability curves, ADCs or free DM1 (as the methyl disulfide derivative DM1-SMe) were added to the cells at final concentrations ranging from 500 nM to 5 pM and incubated for 3 days. The 293, PC3 and T47D cells were incubated with CCK8 (Dojindo, Rockville, Md.) for the final 1-3 hours and the absorbance at 450 nm (OD450) was determined on a Flexstation3 (Molecular Devices, Sunnyvale, Calif.). MCF7 cells were treated with Hoechst 33342 nuclear stain while being fixed with 4% formaldehyde. Images were acquired on the ImageXpress micro XL (Molecular Devices, Sunnyvale, Calif.) and nuclear counts were determined via Columbus image analysis software (Perkin Elmer, Shelton, Conn.). Background OD450 values (PC3, 293, and T47D) or nuclear counts (MCF7) from digitonin (40 nM) treated cells was subtracted from all wells and viability was expressed as a percentage of the untreated controls. IC50 values were determined from a four-parameter logistic equation over a 10-point response curve (GraphPad Prism).

[7] = test system: PC3 cells; assay: Cell viability (cell kill) assay; assay type: cell-based
How it was run: (§4)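 PC3 and PC3/hPRLR (lipofection-generated, FACS-enriched for PRLR) cells exposed 3 days to anti-PRLR ADCs or free DM1-SMe, 500 nM to 5 pM. Viability by CCK8 OD450, digitonin background subtracted, as % of untreated; IC50 from four-parameter fit of 10-point curves.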

[8] = test system: PC3/hPRLR cells; assay: Cell viability (cell kill) assay; assay type: cell-based, human; conditions: PC3/PRLR
How it was run: as §4

[9] = test system: MCF7 (MCF7/ATCC) cells; assay: Cell viability (cell kill) assay, nuclear counts; assay type: cell-based; conditions: MCF7
How it was run: (§5)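 Anti-PRLR ADCs or free DM1-SMe were added at 500 nM to 5 pM final to cells seeded overnight and were incubated 3 days. MCF7 lines were fixed with 4% formaldehyde plus Hoechst 33342, and nuclei were counted by imaging, with digitonin […] background subtracted. Viability was expressed as % of untreated cells, and IC50 was obtained from a 4-parameter fit of a 10-point curve.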

[10] = test system: MCF7/hPRLR (MCF7/PRLR) cells; assay: Cell viability (cell kill) assay, nuclear counts; assay type: cell-based, human
How it was run: as §5

[11] = test system: T47D cells; assay: Cell viability (cell kill) assay; assay type: cell-based; conditions: T47D; for IC50: read-out: IC50
How it was run: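 T47D cells grown overnight, then exposed 3 days to anti-PRLR ADCs (DM1 via non-cleavable SMCC linker, or other maytansinoid toxins) or free DM1-SMe, 500 nM to 5 pM. Viability by CCK8 OD450, digitonin background subtracted, as % of untreated; IC50 from 10-point four-parameter fit. PRL (15 nM) co-incubation tested separately.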

[12] = test system: NCI-N87 cells; assay: Cell viability (cell kill) assay; assay type: cell-based; conditions: Table 17
From the text: as §2, §3
The potency of anti-PRLR conjugated antibodies compared with a similarly conjugated antibody to the co-expressed ErbB2 cell surface target was also assessed. […]

[13] = test system: HEK293/hErbB2 cells; assay: Cell viability (cell kill) assay; assay type: cell-based, human; conditions: 293/ErbB2; Table 14
From the text: as §2, §3
(§6) The potency of anti-PRLR conjugated antibodies compared with a similarly conjugated antibody to the co-expressed ErbB2 cell surface target was also assessed. Both PRLR and ErbB2 are expressed in a majority of breast cancers, and anti-ErbB2 antibodies conjugated to DM1 have shown clinical efficacy in targeting ErbB2 (+) breast cancer (Hurvitz et al; 2013).

[14] = test system: MCF7/hPRLR/hErbB2 cells; assay: Cell viability (cell kill) assay; assay type: cell-based, human; conditions: MCF/PRLR + ErbB2; Table 17
From the text: as §2, §3, §6

[15] = test system: NCI-N87/hPRLR cells; assay: Cell viability (cell kill) assay; assay type: cell-based, human; conditions: NCI-N87/PRLR; Table 17
From the text: as §2, §3, §6

[16] = test system: PC3/hErbB2 cells; assay: Cell viability (cell kill) assay; assay type: cell-based, human; conditions: PC3/ErbB2; Table 15
From the text: as §2, §3, §6

[17] = test system: T47D/hErbB2 cells; assay: Cell viability (cell kill) assay; assay type: cell-based, human; conditions: T47D/ErbB2; Table 16
From the text: as §2, §3, §6

[18] = test system: SK-BR-3 cells; assay: Cell viability (cell kill) assay; assay type: cell-based; conditions: Table 16

Question: Which results are given for `COc1cc2cc(c1Cl)N(C)C(=O)C[C@H](OC(=O)[C@H](C)N(C)C(=O)CCS)[C@]1(C)O[C@H]1[C@H](C)[C@@H]1C[C@@](O)(NC(=O)O1)[C@H](OC)/C=C/C=C(\C)C2` [DM1 (Free Drug)]?
Answer: % Kill [1]: 100%; IC50 [1]: 0.27 nM; % Kill [2]: 98%; IC50 [2]: 0.33 nM; % Kill [3]: 89%; IC50 [3]: 1.26 nM; % Kill [4]: 100%; IC50 [4]: 0.34 nM

Question: With `COc1cc2cc(c1Cl)N(C)C(=O)C[C@H](OC(=O)[C@H](C)N(C)C(=O)CCS)[C@]1(C)O[C@H]1[C@H](C)[C@@H]1C[C@@](O)(NC(=O)O1)[C@H](OC)/C=C/C=C(\C)C2` [DM1 (free drug)] as the molecule, how does the “% Kill” value ([5]; Table 11, 3 days) read?
Answer: 98%

Question: And the IC50 ([5]; Table 11, 3 days)?
Answer: 0.27 nM

Question: And the “% Kill” value ([5]; Table 14)?
Answer: 95%

Question: What about the IC50 ([5]; Table 14) of the same molecule?
Answer: 0.5 nM

Question: What about the “% Kill” value ([6]; Table 11, 3 days) of the same molecule?
Answer: 97%

Question: And the IC50 ([6]; Table 11, 3 days)?
Answer: 0.36 nM

Question: What about the “% Kill” value ([6]; Table 14) of the same molecule?
Answer: 95%

Question: And the IC50 ([6]; Table 14)?
Answer: 0.82 nM

Question: And the “% Kill” value ([7]; Table 11, 3 days)?
Answer: 91%

Question: What about the IC50 ([7]; Table 11, 3 days) of the same molecule?
Answer: 0.47 nM

Question: What about the “% Kill” value ([7]; Table 15) of the same molecule?
Answer: 88%

Question: And the IC50 ([7]; Table 15)?
Answer: 0.44 nM

Question: And the “% Kill” value ([8]; Table 11, 3 days)?
Answer: 80%

Question: And the IC50 ([8]; Table 11, 3 days)?
Answer: 0.59 nM

Question: And the “% Kill” value ([8]; Table 15)?
Answer: 82%

Question: And the IC50 ([8]; Table 15)?
Answer: 0.24 nM

Question: What about the “% Kill” value ([9]; Table 12, 3 days) of the same molecule?
Answer: 83%

Question: And the IC50 ([9]; Table 12, 3 days)?
Answer: 1.17 nM

Question: And the “% Kill” value ([9]; Table 16)?
Answer: 78%

Question: And the IC50 ([9]; Table 16)?
Answer: 0.54 nM

Question: What about the “% Kill” value ([10]; Table 12, 3 days) of the same molecule?
Answer: 88%

Question: And the IC50 ([10]; Table 12, 3 days)?
Answer: 1.47 nM

Question: And the “% Kill” value ([10]; Table 17)?
Answer: 79%

Question: What about the IC50 ([10]; Table 17) of the same molecule?
Answer: 1.85 nM

Question: What about the “% Kill” value ([11]; Table 12, 3 days) of the same molecule?
Answer: 86%

Question: And the IC50 ([11]; Table 12, 3 days)?
Answer: 0.45 nM

Question: What about the “% Kill” value ([11]; Table 16) of the same molecule?
Answer: 80%

Question: What about the IC50 ([11]; Table 16) of the same molecule?
Answer: 0.21 nM

Question: What about the “% Kill” value [12] of the same molecule?
Answer: 95%

Question: What about the IC50 [12] of the same molecule?
Answer: 0.84 nM

Question: What about the “% Kill” value [13] of the same molecule?
Answer: 100%

Question: And the IC50 [13]?
Answer: 0.26 nM

Question: What about the “% Kill” value [14] of the same molecule?
Answer: 77%

Question: And the IC50 [14]?
Answer: 0.82 nM

Question: And the “% Kill” value [15]?
Answer: 98%

Question: What about the IC50 [15] of the same molecule?
Answer: 1.45 nM

Question: What about the “% Kill” value [16] of the same molecule?
Answer: 85%

Question: And the IC50 [16]?
Answer: 0.42 nM

Question: What about the “% Kill” value [17] of the same molecule?
Answer: 71%

Question: What about the IC50 [17] of the same molecule?
Answer: 0.18 nM

Question: And the “% Kill” value [18]?
Answer: 74%

Question: What about the IC50 [18] of the same molecule?
Answer: 0.39 nM
